Calls of active or inactive are those of the source.
Key:
[1] = molecular target: Lysine-specific demethylase 4C (Homo sapiens, UniProt Q9H3R0); assay: inhibition of JMJD2C H3K9me3 demethylation – biochemical, DELFIA europium, cherry-picked samples, dose response (AID 488835); format: functional
[2] = molecular target: T1, Polyadenylate-binding protein 1 (Homo sapiens, UniProt P11940); assay: MLLE binding blockers, Cy5 peptide tracer – biochemical, fluorescence polarization, Cy5-PAM2 peptide, secondary, miRNA deadenylation inhibitor project, dose response (AID 602260); format: functional; details: read-out: IC50_Mean
[3] = molecular target: T1, Polyadenylate-binding protein 1; assay: MLLE domain peptide-binding blockers, IC50 – biochemical, fluorescence polarization, FITC-PAM2 peptide, dose response (AID 602259); format: functional; details: read-out: IC50_Mean
[4] = molecular target: Alkaline phosphatase, placental type (Homo sapiens, UniProt P05187); assay: human placental alkaline phosphatase inhibition – biochemical, luminescence, confirmation (AID 1512); format: functional
[5] = molecular target: T2, Alkaline phosphatase, tissue-nonspecific isozyme (Homo sapiens, UniProt P05186); assay: potency against alkaline phosphatase TNAP – biochemical, luminescent, dose response, SAR follow-up (AID 1056)
T2 sequence (P05186 whole entry): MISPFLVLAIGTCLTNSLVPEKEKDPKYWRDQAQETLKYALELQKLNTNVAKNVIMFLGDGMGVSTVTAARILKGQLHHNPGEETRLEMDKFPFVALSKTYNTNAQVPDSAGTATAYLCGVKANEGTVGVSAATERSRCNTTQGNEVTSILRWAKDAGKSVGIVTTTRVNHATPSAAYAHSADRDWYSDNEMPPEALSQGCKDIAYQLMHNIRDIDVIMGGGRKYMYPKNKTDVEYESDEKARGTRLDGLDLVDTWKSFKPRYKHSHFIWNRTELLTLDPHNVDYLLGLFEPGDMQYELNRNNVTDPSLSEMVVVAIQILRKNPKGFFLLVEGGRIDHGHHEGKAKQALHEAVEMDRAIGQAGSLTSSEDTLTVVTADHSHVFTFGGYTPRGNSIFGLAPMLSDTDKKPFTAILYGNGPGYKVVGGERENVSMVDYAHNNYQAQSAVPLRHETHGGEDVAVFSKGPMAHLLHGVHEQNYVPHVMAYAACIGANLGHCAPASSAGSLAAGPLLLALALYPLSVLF

[6] = molecular target: Tumor necrosis factor (Homo sapiens, UniProt P01375); assay: analog potency on TNFa NF-kB signaling – cell-based, revised, SAR follow-up (AID 2337); format: functional
[7] = molecular target: Nucleotide-binding oligomerization domain-containing protein 1 (Homo sapiens, UniProt Q9Y239); assay: blockers of NOD1 pathway activity – revised, SAR follow-up (AID 2333); format: functional
[8] = molecular target: Nucleotide-binding oligomerization domain-containing protein 2 (Homo sapiens, UniProt Q9HC29); assay: PubChem AID 2334; format: functional
[9] = system: HEK293; assay: cells; details: Homo sapiens;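 note: cells exposed to compound for 14 hours overnight before viability readout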
[10] = system: Saccharomyces cerevisiae; assay: S. cerevisiae Caspase-1/ASC signal blockers IC50, NALP1 inhibitor project selectivity test (AID 488863); format: functional, organism-based
[11] = molecular target: NACHT, LRR and PYD domains-containing protein 1 (Homo sapiens, UniProt Q9C000); assay: NALP1 inhibitors in yeast, dose response, luminescent (AID 488860); format: functional
[12] = molecular target: G-protein coupled receptor 55 (Homo sapiens, UniProt Q9Y2T6); assay: inhibition of LPI-stimulated GPR55 beta-arrestin translocation – imaging, U2OS, beta-arrestin-GFP, LPI agonist, primary screen (AID 2013); format: functional;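 note: antagonist potency measured as reduced agonist-driven arrestin aggregation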
[13] = molecular target: DNA damage-inducible transcript 3 protein (Mus musculus, UniProt P35639); format: functional, Cricetulus griseus
[14] = molecular target: Glyceraldehyde-3-phosphate dehydrogenase (Homo sapiens, UniProt P04406)
[15] = molecular target: Cytochrome P450 2D6 (Homo sapiens, UniProt P10635);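 note: CYP2D6 member of a cytochrome P450 panel assay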
[16] = molecular target: Sphingosine 1-phosphate receptor 1 (Homo sapiens, UniProt P21453); assay: Fluorescence-based counterscreen assay for S1P4 agonists: Cell-based dose response high throughput screening assay to identify agonists of the Sphingosine 1-Phosphate Receptor 1 (S1P1). [Related pubchem assays (depositor defined):AID1509, AID1523, AID1801, AID463107, AID463118, AID463119, AID463122, AID463123, AID463129, AID463225, AID504400, AID504460]; format: functional
[17] = molecular target: T3, Sphingosine 1-phosphate receptor 4 (Homo sapiens, UniProt O95977); assay: Fluorescence dose response cell-based high throughput screening assay for agonists of the Sphingosine 1-Phosphate Receptor 4 (S1P4). [Related pubchem assays: 1509 (Primary screen.), 1523 (Confirmation screen in triplicates.)]; format: functional
T3 sequence (O95977 whole entry): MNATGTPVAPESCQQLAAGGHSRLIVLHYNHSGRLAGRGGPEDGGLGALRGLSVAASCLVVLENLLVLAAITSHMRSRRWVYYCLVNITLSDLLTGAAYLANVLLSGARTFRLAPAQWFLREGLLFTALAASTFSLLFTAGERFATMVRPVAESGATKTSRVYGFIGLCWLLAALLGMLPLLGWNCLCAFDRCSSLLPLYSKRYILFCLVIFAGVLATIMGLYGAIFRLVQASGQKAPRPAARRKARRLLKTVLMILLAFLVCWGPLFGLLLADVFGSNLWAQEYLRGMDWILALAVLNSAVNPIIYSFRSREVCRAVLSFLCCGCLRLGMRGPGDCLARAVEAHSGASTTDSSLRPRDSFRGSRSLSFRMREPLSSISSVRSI

[18] = molecular target: T4, E3 ubiquitin-protein ligase XIAP (Homo sapiens, UniProt P98170); assay: Counter Screen using XIAP-Bir3 for Chemical Antagonists of Bir1/2 domains of IAP-family anti-apoptotic proteins. [Related pubchem assays (depositor defined):AID1018, AID1449, AID1514, AID1638, AID1749, AID1750, AID488957, AID488963]
[19] = molecular target: T4, E3 ubiquitin-protein ligase XIAP; assay: small molecules displacing peptide from XIAP – biochemical, IAP family, fluorescence polarization (AID 1018); format: functional
[20] = luciferase reporter signal suppression in cells – H4 neuroglioma cells, luminescence, dose response (AID 1990); format: functional, cell-based
[21] = Luminescence Cell-Based Dose Response HTS to Identify Inhibitors of 5'UTR Stem-Loop Driven Prion Protein mRNA Translation in H4 Neuroglioblastoma Cells. [Related pubchem assays: 1827 (Project Summary), 1813 (Primary HTS)]; format: functional
[22] = alpha-synuclein stem-loop luciferase translation blockers – H4 neuroglioma cells, luminescence, confirmation (AID 1988); format: functional, cell-based
[23] = THP-1 cell cytotoxicity, dose response, cytotoxicity control for non-replicating M. tuberculosis project (AID 489025); format: functional
[24] = HepG2 cell cytotoxicity, dose response, cytotoxicity control for non-replicating M. tuberculosis project (AID 489018); format: functional; details: Mycobacterium tuberculosis
[25] = Vero E6 cell cytotoxicity, dose response, cytotoxicity control for non-replicating M. tuberculosis project, secondary assay (AID 492998); format: functional, VeroE6; details: Vero C1008
[26] = cells; format: functional
[27] = reduction of Shn3 3'UTR-driven luciferase in osteoblasts – cell-based, Clone20 osteoblasts, firefly luciferase, cherry-picked, dose response (AID 624132); format: functional;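 note: firefly luciferase luminescence from reporter carrying the Shn3 3'UTR in osteoblasts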
[28] = loss of viability in HepG2 cells – cell-based, CellTiter-Glo, cherry-picked, cytotoxicity control for Shn3 inhibitor project, dose response (AID 624134); format: functional
[29] = non-specific 3'UTR reporter inhibition in Clone20-Shn3RL – cell-based, Renilla luciferase, cherry-picked, counter-screen for Shn3 inhibitor project, dose response (AID 624133); format: functional
[30] = molecular target: T5, Heat shock factor protein 1 (Mus musculus, UniProt P38532); assay: decrease of HSF1-responsive luciferase luminescence – cell-based, NIH3T3, dose retest, confirmation (AID 2382); format: functional;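 note: NIH3T3 fibroblasts with HSF1-driven luciferase reporter stressed by proteasome inhibitor MG132; luminescence from HSF1-driven luciferase expression after 8 hours of MG132 stress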
T5 sequence (P38532 whole entry): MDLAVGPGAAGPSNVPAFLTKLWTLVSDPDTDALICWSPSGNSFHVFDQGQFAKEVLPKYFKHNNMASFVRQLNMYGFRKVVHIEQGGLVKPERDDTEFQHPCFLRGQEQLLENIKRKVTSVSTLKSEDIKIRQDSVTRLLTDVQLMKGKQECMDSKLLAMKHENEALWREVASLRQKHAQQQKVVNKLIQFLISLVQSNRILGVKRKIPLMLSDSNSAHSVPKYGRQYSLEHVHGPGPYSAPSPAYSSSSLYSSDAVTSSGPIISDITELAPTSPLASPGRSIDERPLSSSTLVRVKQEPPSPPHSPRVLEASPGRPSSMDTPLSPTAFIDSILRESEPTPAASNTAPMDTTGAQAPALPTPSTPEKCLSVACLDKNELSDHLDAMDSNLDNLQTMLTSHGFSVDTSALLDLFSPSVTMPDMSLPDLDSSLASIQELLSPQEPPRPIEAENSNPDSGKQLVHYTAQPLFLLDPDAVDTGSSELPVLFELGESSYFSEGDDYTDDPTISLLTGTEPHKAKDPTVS

[31] = Trypanosoma cruzi growth suppression in host cells – NIH3T3 host cells, beta-gal luminescence, confirmation (AID 2044); format: functional, cell-based;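 note: intracellular parasites grown in NIH/3T3 mouse fibroblasts as host cells; luminescent beta-galactosidase reporter signal from transgenic T. cruzi replicating inside host cells; inhibitors lower the luminescence signal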
[32] = NIH3T3 cell viability loss – ATP luminescence, mouse fibroblasts, counter-screen, dose response (AID 2010); format: functional, cell-based;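 note: cells exposed to compound for about 90 hours before reading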
[33] = molecular target: Cytochrome P450 2C19 (Homo sapiens, UniProt P33261); assay: Cytochrome panel assay with activity outcomes. Panel member name: p450-cyp2c19 Compounds with AC50 equal or less than 10 uM are considered active; format: functional
[34] = molecular target: T6, Cytochrome P450 1A2 (Homo sapiens, UniProt P05177);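 note: PubChem cytochrome P450 panel assay, CYP1A2 panel member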
T6 sequence (P05177 whole entry): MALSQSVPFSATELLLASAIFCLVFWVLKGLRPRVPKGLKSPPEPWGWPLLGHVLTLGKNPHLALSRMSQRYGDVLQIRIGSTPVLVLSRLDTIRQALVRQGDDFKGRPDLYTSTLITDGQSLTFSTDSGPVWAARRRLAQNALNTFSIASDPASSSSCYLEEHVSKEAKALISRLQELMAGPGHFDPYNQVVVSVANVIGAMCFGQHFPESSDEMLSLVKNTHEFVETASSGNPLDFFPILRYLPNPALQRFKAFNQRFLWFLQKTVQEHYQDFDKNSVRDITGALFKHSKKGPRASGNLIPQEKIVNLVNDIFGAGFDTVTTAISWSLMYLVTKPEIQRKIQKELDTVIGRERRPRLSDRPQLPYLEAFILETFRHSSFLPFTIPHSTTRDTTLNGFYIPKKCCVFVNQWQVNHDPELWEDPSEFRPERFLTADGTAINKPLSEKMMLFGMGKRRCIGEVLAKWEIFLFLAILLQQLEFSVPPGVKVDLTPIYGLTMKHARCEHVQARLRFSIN

[35] = molecular target: Cytochrome P450 2C9 (Homo sapiens, UniProt P11712)
Cytochrome P450 2C9, sequence (P11712 whole entry): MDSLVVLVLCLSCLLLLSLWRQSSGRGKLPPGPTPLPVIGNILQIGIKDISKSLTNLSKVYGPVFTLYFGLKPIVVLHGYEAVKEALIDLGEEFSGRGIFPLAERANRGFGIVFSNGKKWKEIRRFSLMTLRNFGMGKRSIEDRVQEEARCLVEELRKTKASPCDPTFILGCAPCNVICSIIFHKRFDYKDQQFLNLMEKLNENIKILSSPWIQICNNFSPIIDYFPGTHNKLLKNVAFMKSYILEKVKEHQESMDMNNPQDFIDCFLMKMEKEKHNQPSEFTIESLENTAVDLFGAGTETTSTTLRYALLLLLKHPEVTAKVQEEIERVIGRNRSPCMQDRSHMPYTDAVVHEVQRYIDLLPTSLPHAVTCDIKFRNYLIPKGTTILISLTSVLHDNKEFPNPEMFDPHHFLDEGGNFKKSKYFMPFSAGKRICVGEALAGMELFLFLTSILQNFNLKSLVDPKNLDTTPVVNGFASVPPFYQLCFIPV

T4 sequence (P98170 whole entry): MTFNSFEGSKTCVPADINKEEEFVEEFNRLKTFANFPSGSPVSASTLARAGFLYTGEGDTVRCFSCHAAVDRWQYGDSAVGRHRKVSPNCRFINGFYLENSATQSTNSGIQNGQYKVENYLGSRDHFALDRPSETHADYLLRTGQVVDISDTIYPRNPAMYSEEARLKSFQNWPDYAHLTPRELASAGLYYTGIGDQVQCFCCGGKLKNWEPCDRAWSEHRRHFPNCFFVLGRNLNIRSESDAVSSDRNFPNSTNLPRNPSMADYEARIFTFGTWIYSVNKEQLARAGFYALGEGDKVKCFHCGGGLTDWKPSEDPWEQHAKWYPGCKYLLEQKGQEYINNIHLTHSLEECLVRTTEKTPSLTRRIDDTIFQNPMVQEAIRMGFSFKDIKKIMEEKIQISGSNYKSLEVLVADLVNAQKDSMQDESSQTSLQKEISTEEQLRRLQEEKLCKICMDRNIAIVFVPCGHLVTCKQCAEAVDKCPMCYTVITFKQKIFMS
T1 sequence (P11940 whole entry, the tested form may be a part): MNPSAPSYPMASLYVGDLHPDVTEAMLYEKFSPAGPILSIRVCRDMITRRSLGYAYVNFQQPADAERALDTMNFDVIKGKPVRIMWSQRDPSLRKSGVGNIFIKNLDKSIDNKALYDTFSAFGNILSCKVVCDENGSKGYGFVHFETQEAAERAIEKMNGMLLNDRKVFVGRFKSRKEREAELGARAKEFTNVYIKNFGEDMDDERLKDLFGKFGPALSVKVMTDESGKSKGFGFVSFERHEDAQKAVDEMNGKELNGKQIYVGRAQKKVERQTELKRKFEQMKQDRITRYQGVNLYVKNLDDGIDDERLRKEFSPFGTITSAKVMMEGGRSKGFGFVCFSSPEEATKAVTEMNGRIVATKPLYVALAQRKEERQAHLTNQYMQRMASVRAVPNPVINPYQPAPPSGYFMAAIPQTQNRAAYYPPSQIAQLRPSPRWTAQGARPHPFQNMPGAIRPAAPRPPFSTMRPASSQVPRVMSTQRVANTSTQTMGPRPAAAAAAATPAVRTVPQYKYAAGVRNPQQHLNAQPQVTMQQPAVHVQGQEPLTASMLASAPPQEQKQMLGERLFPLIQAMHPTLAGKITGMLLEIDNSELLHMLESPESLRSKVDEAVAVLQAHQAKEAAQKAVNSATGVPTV
Cytochrome P450 2D6, sequence (P10635 whole entry): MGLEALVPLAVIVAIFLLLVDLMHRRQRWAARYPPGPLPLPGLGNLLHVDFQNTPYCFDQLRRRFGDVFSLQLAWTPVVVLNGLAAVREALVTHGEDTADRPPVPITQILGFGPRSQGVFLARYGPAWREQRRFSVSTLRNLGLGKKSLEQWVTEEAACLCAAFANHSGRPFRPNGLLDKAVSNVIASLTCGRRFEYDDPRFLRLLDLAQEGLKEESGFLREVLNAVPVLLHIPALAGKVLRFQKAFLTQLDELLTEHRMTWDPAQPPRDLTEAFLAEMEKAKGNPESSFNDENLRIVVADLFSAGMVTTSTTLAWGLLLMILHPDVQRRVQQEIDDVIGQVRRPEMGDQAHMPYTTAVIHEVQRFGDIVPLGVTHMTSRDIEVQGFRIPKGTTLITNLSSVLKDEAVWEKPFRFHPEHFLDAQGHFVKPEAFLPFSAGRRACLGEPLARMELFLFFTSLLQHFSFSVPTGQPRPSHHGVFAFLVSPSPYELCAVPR
Sphingosine 1-phosphate receptor 1, sequence (P21453 whole entry): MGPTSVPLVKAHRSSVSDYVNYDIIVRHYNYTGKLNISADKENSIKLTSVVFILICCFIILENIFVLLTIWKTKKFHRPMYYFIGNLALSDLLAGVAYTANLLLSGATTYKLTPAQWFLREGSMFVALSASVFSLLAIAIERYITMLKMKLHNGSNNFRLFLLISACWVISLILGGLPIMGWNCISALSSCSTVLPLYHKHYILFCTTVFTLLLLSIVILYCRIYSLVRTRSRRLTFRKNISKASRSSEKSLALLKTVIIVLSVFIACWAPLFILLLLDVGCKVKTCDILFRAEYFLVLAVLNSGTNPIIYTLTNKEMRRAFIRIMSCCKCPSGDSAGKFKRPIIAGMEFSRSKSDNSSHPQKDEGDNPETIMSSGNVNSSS
DNA damage-inducible transcript 3 protein, sequence (P35639 whole entry): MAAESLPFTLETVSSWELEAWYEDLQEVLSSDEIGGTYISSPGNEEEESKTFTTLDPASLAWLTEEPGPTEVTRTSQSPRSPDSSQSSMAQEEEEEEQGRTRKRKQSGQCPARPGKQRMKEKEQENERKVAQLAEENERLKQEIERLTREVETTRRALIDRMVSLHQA
Alkaline phosphatase, placental type, sequence (P05187 whole entry): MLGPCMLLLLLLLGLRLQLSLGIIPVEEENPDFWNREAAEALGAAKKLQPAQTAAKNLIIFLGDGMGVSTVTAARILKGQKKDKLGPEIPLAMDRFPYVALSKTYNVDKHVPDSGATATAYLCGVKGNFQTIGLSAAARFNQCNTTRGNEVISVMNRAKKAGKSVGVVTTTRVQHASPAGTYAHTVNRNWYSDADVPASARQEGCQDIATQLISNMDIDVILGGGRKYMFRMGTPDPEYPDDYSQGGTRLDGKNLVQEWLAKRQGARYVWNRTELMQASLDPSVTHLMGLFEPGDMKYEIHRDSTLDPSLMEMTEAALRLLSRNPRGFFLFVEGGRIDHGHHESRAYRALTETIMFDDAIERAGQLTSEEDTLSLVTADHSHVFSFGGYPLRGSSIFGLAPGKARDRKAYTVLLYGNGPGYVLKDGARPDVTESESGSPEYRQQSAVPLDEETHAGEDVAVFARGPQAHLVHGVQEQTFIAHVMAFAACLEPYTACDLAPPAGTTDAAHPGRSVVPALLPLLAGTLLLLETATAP
NACHT, LRR and PYD domains-containing protein 1, sequence (Q9C000 1-1212 limits assumed): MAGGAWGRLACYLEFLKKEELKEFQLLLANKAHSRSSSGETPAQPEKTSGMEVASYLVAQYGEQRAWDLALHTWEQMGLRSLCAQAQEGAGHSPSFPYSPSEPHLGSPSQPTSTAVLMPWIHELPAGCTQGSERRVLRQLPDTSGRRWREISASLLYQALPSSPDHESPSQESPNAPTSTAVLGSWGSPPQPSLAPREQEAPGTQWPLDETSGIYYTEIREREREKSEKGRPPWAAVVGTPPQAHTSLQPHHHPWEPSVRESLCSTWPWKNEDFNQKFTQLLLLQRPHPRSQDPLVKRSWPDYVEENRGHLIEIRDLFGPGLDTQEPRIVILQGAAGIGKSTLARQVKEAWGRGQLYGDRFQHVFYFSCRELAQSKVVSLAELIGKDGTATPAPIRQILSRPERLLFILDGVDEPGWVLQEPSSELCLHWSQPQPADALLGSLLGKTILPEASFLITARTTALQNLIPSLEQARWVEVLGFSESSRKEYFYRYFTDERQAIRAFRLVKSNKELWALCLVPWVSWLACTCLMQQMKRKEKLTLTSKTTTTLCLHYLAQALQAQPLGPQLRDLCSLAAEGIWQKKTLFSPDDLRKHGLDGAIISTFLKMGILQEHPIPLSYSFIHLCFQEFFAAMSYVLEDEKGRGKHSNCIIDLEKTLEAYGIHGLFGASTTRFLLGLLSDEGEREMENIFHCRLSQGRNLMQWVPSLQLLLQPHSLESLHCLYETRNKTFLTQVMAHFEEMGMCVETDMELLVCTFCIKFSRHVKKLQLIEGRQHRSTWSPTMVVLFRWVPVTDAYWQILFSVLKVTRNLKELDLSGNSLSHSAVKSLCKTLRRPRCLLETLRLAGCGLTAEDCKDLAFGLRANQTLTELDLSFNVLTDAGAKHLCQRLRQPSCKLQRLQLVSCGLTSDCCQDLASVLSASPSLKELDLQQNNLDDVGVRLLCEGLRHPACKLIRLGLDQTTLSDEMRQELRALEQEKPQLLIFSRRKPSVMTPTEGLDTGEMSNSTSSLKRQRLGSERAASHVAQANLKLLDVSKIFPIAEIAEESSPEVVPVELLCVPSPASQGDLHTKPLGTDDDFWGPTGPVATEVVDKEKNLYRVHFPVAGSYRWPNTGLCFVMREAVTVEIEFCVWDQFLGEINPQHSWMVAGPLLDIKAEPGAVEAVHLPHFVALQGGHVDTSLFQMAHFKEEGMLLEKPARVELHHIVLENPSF
NACHT, LRR and PYD domains-containing protein 1, sequence (Q9C000 1213-1473 limits assumed): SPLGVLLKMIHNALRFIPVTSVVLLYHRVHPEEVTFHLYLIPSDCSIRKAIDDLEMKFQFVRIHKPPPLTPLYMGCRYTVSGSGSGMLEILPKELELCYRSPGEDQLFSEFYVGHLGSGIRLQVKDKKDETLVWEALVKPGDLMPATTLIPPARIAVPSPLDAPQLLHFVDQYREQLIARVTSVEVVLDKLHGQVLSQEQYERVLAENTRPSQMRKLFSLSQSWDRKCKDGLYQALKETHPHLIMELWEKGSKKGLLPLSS
Tumor necrosis factor, sequence (P01375 whole entry, the tested form may be a part): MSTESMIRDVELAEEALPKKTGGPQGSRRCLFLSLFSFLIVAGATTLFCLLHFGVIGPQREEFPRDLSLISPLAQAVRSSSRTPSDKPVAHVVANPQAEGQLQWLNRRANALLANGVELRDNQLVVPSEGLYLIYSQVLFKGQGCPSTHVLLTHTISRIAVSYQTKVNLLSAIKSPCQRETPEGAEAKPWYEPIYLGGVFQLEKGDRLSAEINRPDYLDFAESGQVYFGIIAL

O=C(CSc1nc(O)c(Cc2ccccc2)c(=O)[nH]1)c1ccccc1
AC50 [1]: 16.9 µM (active) | IC50 [2]: > 66 µM (inactive) | IC50 [3]: 52.5 µM (inactive)

CCn1c(SCC(=O)c2ccc(O)c(O)c2)nnc1-c1ccc(Cl)cc1
IC50 [4]: 8.76 µM (active) | IC50 [5]: > 100 µM (inactive)

O=C(Nc1ccc(CN2CCc3ccccc3C2)cc1)c1ccc(Cl)cc1
IC50 [6]: > 20 µM (inactive) | IC50 [7]: > 20 µM (inactive) | IC50 [8]: > 20 µM (inactive) | IC50 [9]: > 20 µM (inactive)

CC(C)NC(=O)CCCOc1ccc(Cl)cc1Cl
IC50 [10]: 35.8 µM (active) | IC50 [11]: 40 µM (active)

O=C(O)c1ccc(Cl)c(S(=O)(=O)Nc2ccc(OCc3ccccc3)cc2)c1
IC50 [12]: 4.05 µM (active)

O=C(NNc1ccccc1[N+](=O)[O-])Nc1ccc(Cl)c(Cl)c1
Absolute IC50 (CHOP) [13]: 10 µM

COc1ccc(CCc2nc(N)nn2-c2ccccc2)cc1OC
IC50 [14]: > 100 µM (not active) | IC50 [4]: > 100 µM (inactive) | IC50 [5]: > 100 µM (inactive)

CCS(=O)(=O)N1CCCC(C(=O)NCCCOC(C)C)C1 (configuration not stated)
AC50 [15]: inconclusive

CNC(=O)c1[nH]cnc1C(=O)N[C@@H](Cc1ccccc1)C(=O)OCc1ccccc1
EC50 [16]: 3.13 µM (active) | EC50 [17]: > 16.6 µM (not active)

CC1CN(S(=O)(=O)c2cccc(C(=O)Nc3ccc(S(=O)(=O)Nc4ncccn4)cc3)c2)CC(C)O1 (configuration not stated)
IC50 [18]: > 100 µM (inactive) | IC50 [19]: > 100 µM (not active)

CCOc1cccc(CNCCc2c(C)[nH]c3ccc(OC(F)(F)F)cc23)c1O
EC50 [20]: > 120 µM (not active) | EC50 [21]: 17.2 µM (active) | EC50 [22]: 11.2 µM (active) | CC50 [23]: 6.17 µM (active) | CC50 [24]: 5.75 µM (active) | CC50 [25]: 9.94 µM (active) | IC50 [26]: 10.5 µM (active) | AC50 [27]: 0.611 µM (active) | AC50 [28]: 8.24 µM (active) | AC50 [29]: 18.1 µM (active)

COc1ccc(CNc2oc(-c3cccc4ccccc34)nc2C#N)cc1
Absolute IC50 (CHOP) [13]: 10 µM

C/N=C1/S/C(=C\c2cc(C)n(-c3ccccc3F)c2C)C(=O)N1C
EC50 [16]: 1.18 µM (active) | EC50 [30]: < 0.16 µM (active) | EC50 [17]: 0.844 µM (active)

COc1ccc(-c2nnc(NC(=O)c3ccc(S(=O)(=O)N4COCC4(C)C)cc3)o2)cc1
EC50 [31]: 2.09 µM (active) | EC50 [32]: 7.83 µM (active) | CC50 [23]: 7.22 µM (active) | CC50 [24]: 8.49 µM (active) | CC50 [25]: 6.01 µM (active) | IC50 [26]: 6.25 µM (active)

CCCSc1ccc2nc(NC(=O)OC)[nH]c2c1 [ALBENDAZOLE]
AC50 [33]: inactive | AC50 [34]: 0.398 µM (active) | AC50 [15]: inactive | AC50 [35]: inactive

CCCS(=O)(=O)N1CCN(C(=O)c2ccc(-c3ccccc3)cc2)CC1
IC50 [18]: > 100 µM (inactive) | IC50 [19]: > 100 µM (not active)

From ChEMBL document CHEMBL1201862, “PubChem BioAssay data set” (2004)
